The target of assay [1] is T1, Human IL-17AF (Homo sapiens, UniProt Q16552+Q96PD4).
T1 construct: purchased Sino Biological Inc. CT047-H08H
T1 sequence (Q16552 24-155): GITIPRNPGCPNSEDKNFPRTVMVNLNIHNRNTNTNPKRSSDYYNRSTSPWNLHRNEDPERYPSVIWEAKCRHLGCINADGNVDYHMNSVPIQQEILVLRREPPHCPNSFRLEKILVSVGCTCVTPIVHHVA
T1 sequence (Q96PD4 31-163): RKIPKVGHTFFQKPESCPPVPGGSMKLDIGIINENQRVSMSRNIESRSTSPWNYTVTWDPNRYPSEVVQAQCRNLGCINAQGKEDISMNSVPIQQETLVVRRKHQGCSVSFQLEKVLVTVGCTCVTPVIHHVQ
Briefly: IL-17AF ELISA (competitive ELISA, IL-17AF/IL-17Ra receptor-ligand binding). Particulars: human IL-17AF coated plate, human IL-17Ra, read-out: IC50, inhibitory activity of compounds on human IL-17AF. The protocol: Experiment Example 2 IL-17AF ELISA
The inhibitory effects of human IL-17AF inhibitors on receptor-ligand binding were quantitatively determined by a competitive ELISA.
The ELISA was performed through the following steps.
Human IL-17AF (Sino Biological Inc., Cat #CT047-H08H) was diluted with coating buffer (50 mM PBS, pH 7.4) to reach a concentration of 0.625 μg/ml. 100 μL of the resulting solution was added to each well of a 96-well plate, and the plate was incubated at 37° C. for 30 min. In the blank group, 100 μL of coating buffer was added instead of the IL-17AF solution.
The plate was washed four times with 10 mM PBST (pH 7.4). 200 μL was used per well for each wash. After the final wash, the plate was tapped dry on absorbent paper.
Fresh 5% (w/v) skim milk solution was prepared before the experiment. For example, 5 grams of skim milk powder (Bio-Rad, Cat #170-6404) was completely dissolved in 100 mL of 10 mM PBST. 200 μL of the 5% (w/v) skim milk solution was added to each well, and the plate was incubated on a shaker at 25° C. for 30 min.
(S4) Preparation of 100× to-be-Tested Compound Solutions
During step (S3), the to-be-tested compound solutions were prepared. Each powdered compound was dissolved in dimethyl sulfoxide (DMSO) to reach a stock concentration of 10 mM. The to-be-tested compound solutions were then serially diluted four-fold with DMSO to obtain nine concentrations ranging from […].
(S6) Pre-Incubation of IL-17AF with to-be-Tested Compound Solutions
89 μL of PBST and 1 μL of each of the to-be-tested compound solutions were added to each well and mixed. The plate was pre-incubated at 25° C. for 10 min. In the blank group and the control group, 1 μL of DMSO was added instead of the to-be-tested compound solutions.
(S7) Incubation with Human IL-17Ra
10 μL of 100 nM IL-17Ra (Sino Biological Inc., Cat #10895-H03H) was added to each well, followed by incubation on a shaker at 25° C. for 30 min. The receptor solution was prepared in 10 mM PBST.
(S9) Incubation with Horseradish Peroxidase-Conjugated Antibody
100 μL of mouse anti-Fc tag HRP-conjugated antibody (Sino Biological Inc., Cat #10702-MM01T-H) was added to each well. The plate was incubated on a shaker at 25° C. for 30 min. The antibody was diluted with 5% (w/v) skim milk solution at 1:5,000 (v/v).
100 μL of TMB substrate solution (BD, Cat #555214) was added to each well. Substrate A and substrate B were freshly mixed at a volume ratio of 1:1 before use. The plate was incubated in the dark at 25° C. for 5-15 min.
(S12) Termination and Detection
The color reaction was terminated by addition of 2.5 M HCl. Absorbance was measured at 450 nm using a BMG PHERStar microplate reader.
(S13) Calculation of Half-Maximal Inhibitory Concentration (IC50)
The relative percent residual activity at each compound concentration was calculated according to Equation 1. The IC50 value of each test compound was then calculated in GraphPad 6 using the equation for log(inhibitor) versus normalized response with variable slope, as shown in Equation 2.
relative percent residual activity (%)=[(absorbance of sample−absorbance of blank group)/(absorbance of control group−absorbance of blank group)]%. Equation 1: […]
The compounds prepared in the Examples were tested for IL-17AF inhibitory activity according to the above method.

For assay [2], the target named is T2, Human IL-17A (Homo sapiens, UniProt Q16552).
T2 sequence (Q16552 20-155 limits assumed): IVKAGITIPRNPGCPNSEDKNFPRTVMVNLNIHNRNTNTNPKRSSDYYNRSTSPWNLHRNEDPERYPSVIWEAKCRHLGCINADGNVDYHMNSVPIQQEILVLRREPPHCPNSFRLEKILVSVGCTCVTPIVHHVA
Briefly: IL-17A enzyme-linked immunosorbent assay (competitive ELISA, IL-17A/IL-17Ra receptor-ligand binding). The note with it: human IL-17A coated plate, human IL-17Ra, read-out: IC50, inhibitory activity of compounds on human IL-17A. Details: purchased Sino Biological Inc. 12047-H07B. In outline:
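Competitive ELISA with plates coated with human IL-17A at 0.2 μg/ml, blocked with 5% skim milk. Compound pre-incubated with IL-17A 10 min at 25 °C, then 16 nM IL-17Ra stock added for 30 min. Bound receptor detected by anti-Fc HRP/TMB, A450. IC50 from variable-slope fit of blank-corrected residual activity.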
In general terms: In an ELISA, binding on a coated surface is turned into a signal by an enzyme label.

Assay [3] concerns the target T2, Human IL-17A. Description: Inhibition of human IL-17A protein-induced GROα/CXCL1 production in HT-29 cells. In kind it is cell-based. Details: purchased R&D 317-ILB; host or cells: added exogenously to HT-29 cells. Particulars: 30 ng/mL human IL-17A protein, 48 h, GROα in supernatant by ELISA kit, read-out: Inhibitory IC50 of compounds on HT-29 cell GROα/CXCL1. On the procedure: Experiment Example 3 Inhibition of Human IL-17A Protein-Induced GROα/CXCL1 Production in HT-29 Cells by Compounds
This assay was conducted to evaluate the ability of the compounds to inhibit human IL-17A protein-induced production of the chemokine growth-regulated oncogene alpha/C-X-C motif chemokine ligand 1 (GROα/CXCL1) in HT-29 cells.
Human colorectal adenocarcinoma epithelial HT-29 cells (Chengdu Zhongyuan Gongchuang Technology Co., Ltd.) were seeded into a 96-well plate at a density of 5×10^4 cells per well and were cultured overnight in an incubator at 37° C.
30 ng/mL of human IL-17A protein (R&D, #317-ILB) was mixed with gradient concentrations of the IL-17A small-molecule inhibitor, or with […] of a positive control IL-17A antibody (R&D, #AF-317-NA). These mixtures were incubated at 37° C. for 1 h and were then added to the plate. The mixtures were co-incubated with the HT-29 cells at 37° C. for 48 h. Thereafter, the level of GROα in the cell culture supernatant was determined using a GROα ELISA kit (Cisbio, #62HCXC1PEG).
The inhibitory activity of each compound was expressed as the half-maximal inhibitory concentration (IC50) for inhibition of GROα/CXCL1 production in HT-29 cells.

The structures appear in SMILES notation. Some results are limits rather than exact numbers.

Consider `Cc1[nH]nc2c1-c1cc(F)c(NC(=O)[C@@H](NC(=O)c3ccnn3CCN3CCOCC3)C(C3CC3)C3CC3)cc1COCC2` [compound 97], for which the IC50 in assay [1] is 100 to 500 nM; in assay [2], 50 to 150 nM.

As to `CCn1nccc1C(=O)N[C@H](C(=O)Nc1cc2c(cc1F)-c1c(n[nH]c1C)CC(C)(C)OC2)C(C1CC1)C1CC1` [compound 117], the IC50 in assay [1] was 100 to 500 nM; in assay [2] it was at most 50 nM.

For `Cc1[nH]nc2c1-c1cc(F)c(NC(=O)[C@@H](NC(=O)c3ccnn3C)C(C3CC3)C3CC3)cc1CN(C)C(=O)C2` [compound 134], the IC50 is 100 to 500 nM in assay [1] and 50 to 150 nM in assay [2].

For `COCCN1Cc2cc(NC(=O)[C@@H](NC(=O)c3ccnn3C(C)C)C(C3CC3)C3CC3)c(F)cc2-c2c(n[nH]c2C)CC1=O` [compound 137], the IC50 was at most 100 nM in assay [1] and 100 to 500 nM in assay [3].

In the case of `CCn1nccc1C(=O)N[C@H](C(=O)Nc1cc2c(cc1F)-c1c(n[nH]c1C)CC(=O)N(CCOC)C2)C(C1CC1)C1CC1` [compound 138], the IC50 in assay [1] was at most 100 nM; in assay [3], 100 to 500 nM.

As for `Cc1[nH]nc2c1-c1cc(F)c(NC(=O)[C@@H](NC(=O)c3ccnn3C(C)C)C(C3CC3)C3CC3)cc1CN(C)CC2` [compound 154], the IC50 in assay [1] was 100 to 500 nM; in assay [2], at most 50 nM.

Turning to `Cc1[nH]nc2c1-c1cc(F)c(NC(=O)[C@@H](NC(=O)c3ccnn3C(C)C)C(C3CC3)C3CC3)cc1CN(C(C)C)CC2` [compound 162], the IC50 in assay [1] was in the range of 100 to 500 nM; in assay [2], 50 to 150 nM.

For the compound `Cc1[nH]nc2c1-c1cc(F)c(NC(=O)[C@@H](NC(=O)c3ccc(C#N)n3C)C(C3CC3)C3CC3)cc1COCC2` [compound 227], the IC50 is 100 to 500 nM in assay [1] and at most 50 nM in assay [2].

For the origin of these results see patent US20260258050A1, “IMMUNOMODULATOR” (HITGEN INC., priority 2023, published 2026).
